Test results published in ChEMBL document CHEMBL4840351 (J Med Chem, 2021).

Key:
[1] = biological target: Epidermal growth factor receptor (Homo sapiens, UniProt P00533); assay: Inhibition of N-terminal DYKDDDD-tagged EGFR (669 to 1210 residues) (unknown origin) expressed in Sf21 insect cells using NH2-ETVYSEVRK-biotin as substrate preincubated for 1 hr followed by ATP addition and measured after 2 hrs by ELISA
[2] = biological target: T1, Tyrosine-protein kinase ITK/TSK (Homo sapiens, UniProt Q08881); assay: Inhibition of full-length N-terminal GST-tagged ITK (2 to 620 residues) (unknown origin) expressed in Sf21 insect cells using NH2-ETVYSEVRK-biotin as substrate preincubated for 1 hr followed by ATP addition and measured after 2 hrs by ELISA
T1 sequence (Q08881 whole entry): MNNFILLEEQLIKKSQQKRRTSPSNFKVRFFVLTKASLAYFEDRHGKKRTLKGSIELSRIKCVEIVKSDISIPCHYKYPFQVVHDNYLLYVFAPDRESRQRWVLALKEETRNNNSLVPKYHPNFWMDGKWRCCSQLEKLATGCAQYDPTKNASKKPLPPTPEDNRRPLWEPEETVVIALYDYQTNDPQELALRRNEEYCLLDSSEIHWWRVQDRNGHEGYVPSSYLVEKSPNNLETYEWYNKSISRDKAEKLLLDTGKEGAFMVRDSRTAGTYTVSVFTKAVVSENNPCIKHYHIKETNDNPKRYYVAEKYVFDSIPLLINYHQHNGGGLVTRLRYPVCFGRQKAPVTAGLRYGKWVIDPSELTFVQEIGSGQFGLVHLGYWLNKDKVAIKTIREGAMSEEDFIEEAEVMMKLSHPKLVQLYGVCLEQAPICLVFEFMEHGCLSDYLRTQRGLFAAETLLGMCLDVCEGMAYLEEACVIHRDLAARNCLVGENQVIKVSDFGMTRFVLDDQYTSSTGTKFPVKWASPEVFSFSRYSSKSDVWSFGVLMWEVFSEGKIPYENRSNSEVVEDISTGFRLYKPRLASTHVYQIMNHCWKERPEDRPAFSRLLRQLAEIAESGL

[3] = biological target: Tyrosine-protein kinase BTK (Homo sapiens, UniProt Q06187); assay: Inhibition of full-length N-terminal GST tagged BTK (2 to 659 residues) (unknown origin) expressed in Sf21 insect cells using NH2-ETVYSEVRK-biotin as substrate preincubated for 1 hr followed by ATP addition and measured after 2 hrs by ELISA
[4] = system: TMD8; assay: Induction of cell cycle arrest in human TMD8 cells assessed as accumulation of cells at G2 phase at 3 nM incubated for 48 hrs by PI staining based flow cytometric analysis (reference value: 4.92 %); format: functional
[5] = system: TMD8; assay: Induction of cell cycle arrest in human TMD8 cells assessed as accumulation of cells at G2 phase at 300 nM incubated for 48 hrs by PI staining based flow cytometric analysis (reference value: 4.92 %); format: functional
[6] = system: TMD8; assay: Induction of apoptosis in human TMD8 cells at 3000 nM incubated for 72 hrs by Annexin V-FITC/PI staining based flow cytometric analysis (reference value: 13.4 %); format: functional
[7] = system: TMD8; assay: Induction of cell cycle arrest in human TMD8 cells assessed as accumulation of cells at S phase at 3 nM incubated for 48 hrs by PI staining based flow cytometric analysis (reference value: 37.42 %); format: functional
[8] = system: TMD8; assay: Induction of apoptosis in human TMD8 cells at 300 nM incubated for 72 hrs by Annexin V-FITC/PI staining based flow cytometric analysis (reference value: 13.4 %); format: functional
[9] = system: TMD8; assay: Induction of cell cycle arrest in human TMD8 cells assessed as accumulation of cells at G1 phase at 300 nM incubated for 48 hrs by PI staining based flow cytometric analysis (reference value: 57.66 %); format: functional
[10] = system: TMD8; assay: Induction of cell cycle arrest in human TMD8 cells assessed as accumulation of cells at G1 phase at 30 nM incubated for 48 hrs by PI staining based flow cytometric analysis (reference value: 57.66 %); format: functional
[11] = system: Ramos; assay: Antiproliferative activity against human Ramos cells assessed as reduction in cell viability incubated for 72 hrs by celltiter-glo assay
[12] = system: TMD8; assay: Induction of cell cycle arrest in human TMD8 cells assessed as accumulation of cells at G1 phase at 3 nM incubated for 48 hrs by PI staining based flow cytometric analysis (reference value: 57.66 %); format: functional
[13] = system: TMD8; assay: Induction of cell cycle arrest in human TMD8 cells assessed as accumulation of cells at S phase at 30 nM incubated for 48 hrs by PI staining based flow cytometric analysis (reference value: 37.42 %); format: functional
[14] = system: TMD8; assay: Induction of cell cycle arrest in human TMD8 cells assessed as accumulation of cells at S phase at 300 nM incubated for 48 hrs by PI staining based flow cytometric analysis (reference value: 37.42 %); format: functional
[15] = system: TMD8; assay: Induction of apoptosis in human TMD8 cells at 30 nM incubated for 72 hrs by Annexin V-FITC/PI staining based flow cytometric analysis (reference value: 13.4 %); format: functional
[16] = system: TMD8; assay: Induction of cell cycle arrest in human TMD8 cells assessed as accumulation of cells at G2 phase at 30 nM incubated for 48 hrs by PI staining based flow cytometric analysis (reference value: 4.92 %); format: functional
[17] = system: TMD8; assay: Antiproliferative activity against human TMD8 cells assessed as reduction in cell viability incubated for 72 hrs by celltiter-glo assay; conditions: TMD8, 72 h
[18] = system: MOLM-13; assay: Antiproliferative activity against human MOLM-13 cells assessed as reduction in cell viability incubated for 72 hrs by celltiter-glo assay; conditions: MOLM-13, 72 h
[19] = system: Raji; assay: Antiproliferative activity against human Raji cells assessed as reduction in cell viability incubated for 72 hrs by celltiter-glo assay
[20] = system: SU-DHL-2; assay: Antiproliferative activity against human SUDHL2 cells assessed as reduction in cell viability incubated for 72 hrs by celltiter-glo assay; conditions: SU-DHL-2, 72 h
[21] = system: NAMALVA; assay: Antiproliferative activity against human NAMALWA cells assessed as reduction in cell viability incubated for 72 hrs by celltiter-glo assay
[22] = system: TMD8; assay: Antitumor activity against human TMD8 cells xenografted in CB-17 SCID nude mouse assessed as tumor growth inhibition at 7.5 mg/kg, po bid administered for 21 days; format: functional; conditions: 504 h, time 21 day, read-out: TGI
[23] = system: Pfeiffer; assay: Antiproliferative activity against human Pfeiffer cells assessed as reduction in cell viability incubated for 72 hrs by celltiter-glo assay
[24] = Cmax in ICR mouse at 15 mg/kg, po after 24 hrs; format: ADME, organism-based; parameters: route oral, time 24 hrs, dose 15 mg/kg; conditions: in vivo
[25] = system: Rec1; assay: Antiproliferative activity against human REC-1 cells assessed as reduction in cell viability incubated for 72 hrs by celltiter-glo assay; conditions: Rec1, 72 h
[26] = Receptor occupancy at BTK in spleen of ICR mouse at 15 mg/kg, po after 24 hrs by ELISA; format: functional

Tyrosine-protein kinase BTK, sequence (Q06187 whole entry, the tested form may be a part): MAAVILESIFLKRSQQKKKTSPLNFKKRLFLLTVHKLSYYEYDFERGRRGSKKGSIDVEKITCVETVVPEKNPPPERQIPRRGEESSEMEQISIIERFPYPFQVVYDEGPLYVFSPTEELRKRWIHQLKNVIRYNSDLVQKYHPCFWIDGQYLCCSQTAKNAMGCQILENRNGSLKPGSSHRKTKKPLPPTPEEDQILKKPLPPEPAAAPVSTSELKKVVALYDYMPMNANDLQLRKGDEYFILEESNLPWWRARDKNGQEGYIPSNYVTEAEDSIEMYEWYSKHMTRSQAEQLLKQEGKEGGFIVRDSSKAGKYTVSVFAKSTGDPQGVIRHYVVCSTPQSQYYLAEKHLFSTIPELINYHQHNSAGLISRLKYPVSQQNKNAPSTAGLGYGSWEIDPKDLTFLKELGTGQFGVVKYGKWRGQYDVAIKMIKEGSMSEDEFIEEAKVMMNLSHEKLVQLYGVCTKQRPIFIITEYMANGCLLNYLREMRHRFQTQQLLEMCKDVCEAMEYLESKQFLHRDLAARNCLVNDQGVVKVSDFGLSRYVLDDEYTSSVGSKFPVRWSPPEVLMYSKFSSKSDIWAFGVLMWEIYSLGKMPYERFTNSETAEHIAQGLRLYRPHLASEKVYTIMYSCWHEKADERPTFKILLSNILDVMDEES
Epidermal growth factor receptor, sequence (P00533 whole entry, the tested form may be a part): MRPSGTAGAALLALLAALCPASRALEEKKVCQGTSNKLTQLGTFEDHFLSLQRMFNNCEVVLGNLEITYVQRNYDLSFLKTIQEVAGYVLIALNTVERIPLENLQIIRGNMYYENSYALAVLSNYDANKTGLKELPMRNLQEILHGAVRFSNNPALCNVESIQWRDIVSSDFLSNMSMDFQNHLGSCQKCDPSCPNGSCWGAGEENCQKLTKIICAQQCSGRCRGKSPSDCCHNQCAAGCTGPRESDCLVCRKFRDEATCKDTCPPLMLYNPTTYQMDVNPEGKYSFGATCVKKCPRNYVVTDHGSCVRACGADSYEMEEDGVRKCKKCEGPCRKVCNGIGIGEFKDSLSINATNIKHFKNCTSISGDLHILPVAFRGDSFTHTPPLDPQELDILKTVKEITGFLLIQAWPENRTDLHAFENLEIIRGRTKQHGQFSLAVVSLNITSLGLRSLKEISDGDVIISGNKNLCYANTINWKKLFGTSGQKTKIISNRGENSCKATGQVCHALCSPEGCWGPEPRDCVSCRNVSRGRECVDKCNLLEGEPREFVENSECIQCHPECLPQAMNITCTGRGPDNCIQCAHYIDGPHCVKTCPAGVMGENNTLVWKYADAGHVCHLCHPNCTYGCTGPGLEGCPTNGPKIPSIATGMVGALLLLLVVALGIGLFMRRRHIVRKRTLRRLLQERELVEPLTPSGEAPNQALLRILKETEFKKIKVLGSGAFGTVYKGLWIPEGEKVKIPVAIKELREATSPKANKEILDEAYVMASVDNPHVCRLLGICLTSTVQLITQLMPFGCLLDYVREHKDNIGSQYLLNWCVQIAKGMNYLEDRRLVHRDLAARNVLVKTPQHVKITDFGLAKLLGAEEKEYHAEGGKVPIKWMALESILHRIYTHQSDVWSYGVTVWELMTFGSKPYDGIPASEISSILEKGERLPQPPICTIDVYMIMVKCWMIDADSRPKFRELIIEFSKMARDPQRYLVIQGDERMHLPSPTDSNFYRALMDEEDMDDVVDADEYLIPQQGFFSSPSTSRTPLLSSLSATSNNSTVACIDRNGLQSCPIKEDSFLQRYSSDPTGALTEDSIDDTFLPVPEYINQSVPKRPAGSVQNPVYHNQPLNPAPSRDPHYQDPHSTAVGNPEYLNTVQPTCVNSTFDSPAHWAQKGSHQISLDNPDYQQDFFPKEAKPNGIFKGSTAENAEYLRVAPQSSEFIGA

C=CC(=O)N1CCCC[C@H]1c1nc(-c2ccc(C(=O)Nc3cc(Cl)ccn3)cc2)c(C(N)=O)n1N
IC50 [1]: 176 nM
IC50 [2]: 29.5 µM

CC/C=C/C(=O)N1CCCC[C@H]1c1nc(-c2ccc(C(=O)Nc3cc(CC)ccn3)cc2)c(C(N)=O)n1N
IC50 [3]: > 10000 nM

C=CC(=O)N1CCCCC[C@H]1c1nc(-c2ccc(C(=O)Nc3cc(CC)ccn3)cc2)c(C(N)=O)n1N
IC50 [3]: 226 nM

C=CC(=O)N1CCCC[C@H]1c1nc(-c2ccc(C(=O)Nc3cc(OC)ccn3)cc2)c(C(N)=O)n1N
IC50 [1]: 450 nM
IC50 [2]: > 30 µM

C=C(C)C(=O)N1CCCC[C@H]1c1nc(-c2ccc(C(=O)Nc3cc(CC)ccn3)cc2)c(C(N)=O)n1N
IC50 [3]: > 10000 nM

C=CC(=O)N1CCC[C@@H](c2nc(-c3ccc(C(=O)Nc4cc(CC)ccn4)cc3)c(C(N)=O)n2N)C1
IC50 [3]: 18.9 nM

C=CC(=O)N1CCCC[C@H]1c1nc(-c2ccc(C(=O)Nc3cc(C#N)ccn3)cc2)c(C(N)=O)n1N
IC50 [3]: 17.1 nM

CC#CC(=O)N1CCCC[C@H]1c1nc(-c2ccc(C(=O)Nc3cc(Cl)ccn3)cc2)c(C(N)=O)n1N
IC50 [1]: > 30000 nM
IC50 [2]: > 30 µM

C=CC(=O)N1CCCC[C@H]1c1nc(-c2ccc(C(=O)Nc3cc(CC)ccn3)cc2)c(C(N)=O)n1N
IC50 [3]: 11.3 nM

CC#CC(=O)N1CCCC[C@H]1c1nc(-c2ccc(C(=O)Nc3cc(-c4ccccc4)ccn3)cc2)c(C(N)=O)n1N
IC50 [1]: 16800 nM
IC50 [2]: > 30 µM

CC#CC(=O)N1CCCC[C@H]1c1nc(-c2ccc(C(=O)Nc3cc(C(F)(F)F)ccn3)cc2)c(C(N)=O)n1N
Activity [4]: 4.09%
Activity [5]: 3.18%
Activity [6]: 81.3%
Activity [7]: 41.28%
Activity [8]: 36.8%
Activity [9]: 94.86%
Activity [10]: 67.44%
IC50 [11]: 0.77 µM
Activity [12]: 54.63%
Activity [13]: 27.8%
Activity [14]: 1.96%
Activity [15]: 14.1%
Activity [16]: 4.76%
IC50 [17]: 54 nM
IC50 [2]: > 30 µM
IC50 [18]: 0.73 µM

C=CC(=O)N1CCCC[C@H]1c1nc(-c2ccc(C(=O)Nc3cccnc3)cc2)c(C(N)=O)n1N
IC50 [3]: > 10000 nM

C=CC(=O)N1CCCC[C@H]1c1nc(-c2ccc(C(=O)Nc3ccccc3)cc2)c(C(N)=O)n1N
IC50 [3]: 571 nM

CCc1ccnc(NC(=O)c2ccc(-c3nc([C@@H]4CCCCN4C(=O)/C(C#N)=C/C4CC4)n(N)c3C(N)=O)cc2)c1
IC50 [3]: > 10000 nM

C=CC(=O)N1CCCC[C@H]1c1nc(-c2ccc(C(=O)Nc3cc(-c4ccc(Cl)cc4)ccn3)cc2)c(C(N)=O)n1N
IC50 [1]: 12.6 nM
IC50 [2]: 1.92 µM

C#CC(=O)N1CCCC[C@H]1c1nc(-c2ccc(C(=O)Nc3cc(CC)ccn3)cc2)c(C(N)=O)n1N
IC50 [3]: 10 nM

CC#CC(=O)N1CCC[C@H]1c1nc(-c2ccc(C(=O)Nc3ccccn3)cc2)c2c(N)nccn12 [ACALABRUTINIB]
IC50 [19]: > 10 µM
IC50 [20]: > 10 µM
IC50 [21]: > 10 µM
inhibition in vivo at 7.5 mg/kg [22]: 91%
IC50 [23]: > 10 µM
IC50 [11]: 31.3 µM
Cmax [24]: 780 nM
IC50 [25]: 13 nM
IC50 [17]: 24 nM
Occ [26]: 44%
IC50 [18]: 358 µM

C=CC(=O)N1CCCC[C@H]1c1nc(-c2ccc(C(=O)Nc3cc(Br)ccn3)cc2)c(C(N)=O)n1N
IC50 [1]: 578 nM
IC50 [2]: 15.3 µM

C=CC(=O)N1CCC[C@H]1c1nc(-c2ccc(C(=O)Nc3cc(CC)ccn3)cc2)c(C(N)=O)n1N
IC50 [3]: 39.3 nM

C/C=C/C(=O)N1CCCC[C@H]1c1nc(-c2ccc(C(=O)Nc3cc(CC)ccn3)cc2)c(C(N)=O)n1N
IC50 [3]: > 10000 nM

CCc1ccnc(NC(=O)c2ccc(-c3nc([C@@H]4CCCCN4C(=O)C=C(C)C)n(N)c3C(N)=O)cc2)c1
IC50 [3]: > 10000 nM

C=CC(=O)N1CCC[C@@H](n2nc(-c3ccc(Oc4ccccc4)cc3)c3c(N)ncnc32)C1 [IBRUTINIB]
inhibition in vivo at 7.5 mg/kg [22]: 99%

C=CC(=O)N1CCCC[C@H]1c1nc(-c2ccc(C(=O)Nc3cc(-c4ccc(F)cc4)ccn3)cc2)c(C(N)=O)n1N
IC50 [1]: 113 nM
IC50 [2]: 6.06 µM

C=CC(=O)N1CCCC[C@H]1c1nc(-c2ccc(C(=O)Nc3cc(C(F)(F)F)ccn3)cc2)c(C(=O)OCC)n1N
IC50 [3]: 5160 nM

CCC(=O)N1CCCC[C@H]1c1nc(-c2ccc(C(=O)Nc3cc(C(F)(F)F)ccn3)cc2)c(C(N)=O)n1N
IC50 [3]: 4750 nM

CCc1ccnc(NC(=O)c2ccc(-c3nc([C@@H]4CCCCN4C(=O)/C(C#N)=C/C(C)C)n(N)c3C(N)=O)cc2)c1
IC50 [3]: > 10000 nM

C=CC(=O)N1CCCC[C@H]1c1nc(-c2ccc(C(=O)Nc3cc(-c4ccccc4)ccn3)cc2)c(C(N)=O)n1N
IC50 [1]: 79.4 nM
IC50 [2]: 2.21 µM
